Drawing on PubChem BioAssay AID624274 (Broad Institute, 2012), this text covers AC50 for 70 molecules.

Molecules are shown by their SMILES. Values joined by “and” are separate entries in the source; they are usually repeats but may differ in a detail not shown here. Identical values can stand only once.

Chain of Protein disulfide-isomerase (Homo sapiens) (P07237 whole entry, looked up): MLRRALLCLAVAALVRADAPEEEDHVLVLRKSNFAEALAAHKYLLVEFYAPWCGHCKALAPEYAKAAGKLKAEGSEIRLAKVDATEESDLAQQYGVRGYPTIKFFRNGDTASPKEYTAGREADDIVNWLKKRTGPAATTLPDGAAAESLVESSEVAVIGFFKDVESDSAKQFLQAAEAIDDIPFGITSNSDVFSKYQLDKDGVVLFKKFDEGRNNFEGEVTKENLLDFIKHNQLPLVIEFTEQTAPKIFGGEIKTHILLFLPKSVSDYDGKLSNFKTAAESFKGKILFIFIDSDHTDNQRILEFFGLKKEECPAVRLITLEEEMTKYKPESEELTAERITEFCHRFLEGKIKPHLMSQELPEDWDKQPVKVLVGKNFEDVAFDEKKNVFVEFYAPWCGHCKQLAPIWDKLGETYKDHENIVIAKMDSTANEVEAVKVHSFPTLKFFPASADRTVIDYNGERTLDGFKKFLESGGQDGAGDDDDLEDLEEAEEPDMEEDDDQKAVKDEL

This assay has as its target Protein disulfide-isomerase (Homo sapiens) (UniProt P07237). Briefly: PDI inhibitors, insulin turbidity readout, dose response, biochemical, absorbance, cherry-picked samples, set 2 (AID 624274). As to conditions: PDI insulin reduction turbidity, absorbance 650 nm.
Usually AC50 stands for the concentration at which the activity in the assay is half-maximal. For the molecule `C[C@H](CO)N1C[C@H](C)[C@@H](CN(C)S(=O)(=O)c2ccccc2)Oc2ccc(NC(=O)Cc3cn(C)c4ccccc34)cc2C1=O`, the AC50 was 0.125 µM.

Take `Cc1noc(C)c1S(=O)(=O)Nc1ccc2c(c1)CC(=O)N([C@H](C)CO)C[C@H](C)[C@H](CN(C)S(=O)(=O)c1ccc(F)cc1)O2`: the AC50 is 19.5 µM and 16.9 µM.

With `CC(C)(C)OC(=O)N[C@@H](Cc1c[nH]c2ccccc12)c1nnc(SCC(N)=O)o1`, the AC50 was 19.5 µM.

Take `C[C@H]1CN([C@@H](C)CO)C(=O)c2cc(NC(=O)Cc3cn(C)c4ccccc34)ccc2O[C@@H]1CN(C)S(=O)(=O)c1ccc(F)cc1`: the AC50 was 19.5 µM.

With `O=C(O)C1C(c2ccccc2)C(C(=O)Oc2ccc(O)cc2)C1c1ccccc1` (stereo not given), the AC50 was 14.7 µM.

As for `CCN1C[C@]2(COC(=O)c3ccccc3N)CC[C@H](OC)C34[C@@H]5C[C@H]6[C@H](OC)[C@@H]5[C@](O)(C[C@@H]6OC)[C@@](O)([C@H]13)[C@@H](OC)[C@@H]42`, the AC50 is 19.5 µM.

Take `CC[C@]12c3[nH]c4cc(-c5ccco5)ccc4c3CCN1C(=O)[C@@H](CC(=O)NCc1ccc(OC)c(OC)c1)C[C@@H]2C(=O)N1CCN(C(=O)c2ccco2)CC1`: the AC50 was 4.25 µM.

With `CC(C)Sc1nnc([C@H](Cc2c[nH]c3ccccc23)NC(=O)OC(C)(C)C)o1`, the AC50 is 19.5 µM.

Take `CC(Cc1ccccc1Sc1ccccc1O)N(C)C` (stereo not given): the AC50 is 15.9 µM.

Turning to `C[C@H]1CN([C@@H](C)CO)C(=O)c2cc(NC(=O)Cc3cn(C)c4ccccc34)ccc2O[C@H]1CN(C)S(=O)(=O)c1ccc(F)cc1`, the AC50 was 19.5 µM.

In the case of `C[C@H]1CN([C@@H](C)CO)C(=O)Cc2cc(NC(=O)Nc3ccccc3)ccc2O[C@H]1CN(C)Cc1ccccc1`, the AC50 is 10.3 µM.

For `O=c1c(OC2OC(CO)C(O)C(O)C2O)c(-c2ccc(O)c(O)c2)oc2cc(O)cc(O)c12` (stereo not given), the AC50 was 8.92 µM.

In the case of `CC(=O)OC[C@H]1O[C@@H](Oc2cc(O)cc3oc(-c4ccc(O)cc4)cc(=O)c23)[C@H](O[C@@H]2O[C@@H](C)[C@H](O)[C@@H](O)[C@H]2O)[C@@H](O)[C@@H]1O`, the AC50 was 19.5 µM.

As for `Cc1cccn2c(CN(C)C3CCCc4ccccc43)c(C(=O)N3CCOCC3)nc12` (stereo not given), the AC50 is 19.5 µM.

Turning to `C[C@@H]1O[C@@H](Oc2c(-c3cc(O)c(O)c(O)c3)oc3cc(O)cc(O)c3c2=O)[C@H](O)[C@H](O)[C@H]1O`, the AC50 is 9.8 µM.

For `CCN(CC)CCNC(=O)C(C(=O)c1ccccc1)n1ccccc1=O` (stereo not given), the AC50 was 2.16 µM.

For the molecule `O=C1NC[C@H](Cc2ccccc2)N(C[C@H]2CCCN2C[C@H](Cc2ccccc2)N2C[C@H](Cc3ccc(O)cc3)N(CCc3ccccc3)C(=O)C2=O)C1=O`, the AC50 was 6.5 µM.

Regarding `CN(C)C(=O)CSc1nnc([C@H](Cc2c[nH]c3ccccc23)NC(=O)OC(C)(C)C)o1`, the AC50 was 19.5 µM.

For `C[C@@H]1O[C@@H](Oc2c(-c3ccc(O)c(O)c3)oc3cc(O)cc(O)c3c2=O)[C@H](O)[C@H](O)[C@H]1O`, the AC50 is 2.48 µM and 5.59 µM.

Regarding `O=C(CCC1CCCCC1)NCCN1C2=NC[C@H](Cc3ccc(O)cc3)N2C[C@H]1Cc1ccc(O)cc1`, the AC50 is 19.5 µM.

On to `COC1/C=C/C=C(\C)Cc2cc(O)c(Cl)c(c2)N(C)C(=O)CC(OC(=O)C(C)C)C2(C)OC2C(C)C2CC1(O)NC(=O)O2` (stereo not given), for which the AC50 is 9.59 µM.

For `O=c1c(O[C@H]2O[C@@H](CO)[C@H](O)[C@@H](O)[C@@H]2O)c(-c2ccc(O)cc2)oc2cc(O)cc(O)c12`, the AC50 was 0.0155 µM.

With `C[C@]12CC[C@@H]3c4ccc(O[C@@H]5O[C@H](C(=O)O)[C@@H](O)[C@H](O)[C@H]5O)cc4CC[C@H]3[C@@H]1C[C@@H](O)[C@@H]2O`, the AC50 is 15.7 µM.

`C[C@H]1CN([C@@H](C)CO)C(=O)c2cccc(NS(C)(=O)=O)c2O[C@@H]1CN(C)Cc1ccc(Oc2ccccc2)cc1`: the AC50 is 19.5 µM.

On to `Cc1noc(C)c1S(=O)(=O)Nc1ccc2c(c1)CC(=O)N([C@H](C)CO)C[C@H](C)[C@@H](CN(C)S(=O)(=O)c1ccc(F)cc1)O2`, for which the AC50 is 19.5 µM.

Take `CCOC(=O)C1(CCOc2ccccc2)CCN(Cc2ccc(O)c(Cl)c2)CC1`: the AC50 is 0.599 µM.

Regarding `C[C@@H]1O[C@@H](OC[C@H]2O[C@@H](Oc3c(-c4ccc(O)c(O)c4)oc4cc(O)cc(O)c4c3=O)[C@H](O)[C@@H](O)[C@@H]2O)[C@H](O)[C@H](O)[C@H]1O`, the AC50 is 7.62 µM.

As for `Cc1noc(C)c1S(=O)(=O)Nc1ccc2c(c1)CC(=O)N([C@@H](C)CO)C[C@H](C)[C@H](CN(C)S(=O)(=O)c1ccc(F)cc1)O2`, the AC50 is 19.5 µM.

Consider `CCN1CC2(COC(=O)c3ccccc3N)CCC(OC)C34C5CC6C(OC)CC(O)(C5C6OC)C(O)(C(OC)C23)C14` (stereo not given), for which the AC50 is 19.5 µM.

In the case of `COc1cccc(NS(=O)(=O)c2ccc3c(c2)C2C=CCC2C(c2ccc(C(=O)O)cc2)N3)c1` (stereo not given), the half-maximal activity concentration (AC50) is 15.8 µM.

For `COC(=O)CC1OCC=C2CN3CCC45C6=CC(=O)C(=O)C([N+](=O)[O-])=C6NC4C1C2CC35` (stereo not given), the half-maximal activity concentration (AC50) was 8.03 µM.

With `Cc1ccc2nc(N3CCN(Cc4nnnn4C4CCCC4)CC3)c(C#N)cc2c1`, the AC50 is 4.05 µM.

`COc1ccc(C(=O)Nc2ccccc2C(=O)NCc2ccco2)cc1`: the AC50 was 0.819 µM.

`O=S(=O)(c1ccccc1)N1N=C(c2ccc(O)cc2)CC1c1ccco1` (stereo not given): the AC50 is 19.5 µM.

As to `Cc1c(O)ccc2c(CN3CCN(CCO)CC3)cc(=O)oc12`, the AC50 was 8.66 µM.

For the molecule `COc1ccccc1N1CCN(C(=O)C(=O)N/N=C/c2cccc(O)c2)CC1`, the AC50 was 19.5 µM.

Take `C[C@@H]1CN([C@H](C)CO)C(=O)c2cccc(NS(C)(=O)=O)c2O[C@H]1CN(C)Cc1ccc(Oc2ccccc2)cc1`: the AC50 is 18.8 µM.

Consider `CCSc1nnc([C@H](Cc2c[nH]c3ccccc23)NC(=O)OC(C)(C)C)o1`, for which the AC50 was 19.5 µM.

On to `O=C(NC(Cc1ccc(O)cc1)C(=O)N=Nc1c(O)[nH]c2ccccc12)c1ccccc1` (stereo not given), for which the AC50 was 19.5 µM.

As for `CN(C)S(=O)(=O)c1ccc(Cl)c(NC(=O)CSc2nnnn2-c2ccc(O)cc2)c1`, the AC50 was 19.5 µM.

As to `Cc1noc(C)c1S(=O)(=O)Nc1ccc2c(c1)CC(=O)N([C@@H](C)CO)C[C@@H](C)[C@H](CN(C)S(=O)(=O)c1ccc(F)cc1)O2`, the AC50 is 19.5 µM.

As to `Cc1c(-n2cc(C(=O)c3ccccc3O)cc(C#N)c2=O)c(=O)n(-c2ccccc2)n1C`, the AC50 was 5.89 µM.

`C[C@H](CO)N1C[C@H](C)[C@H](CN(C)Cc2ccccc2)Oc2ccc(NC(=O)Nc3ccccc3)cc2CC1=O`: the AC50 is 19.5 µM.

Consider `C[C@@H]1O[C@@H](O[C@@H]2C(=O)c3c(O)cc(O)cc3O[C@H]2c2ccc(O)c(O)c2)[C@H](O)[C@H](O)[C@H]1O`, for which the AC50 is 10.2 µM.

In the case of `COc1ccc(N2CCN(CC(=O)c3ccc(O)c(C)c3O)CC2)cc1`, the AC50 is 19.5 µM.

As for `C/C=C(\C)C(=O)NCCN1C2=NC[C@H](Cc3ccc(O)cc3)N2C[C@H]1Cc1ccc(O)cc1`, the AC50 was 15.4 µM.

For the molecule `CC[C@]12c3[nH]c4cc(-c5ccco5)ccc4c3CCN1C(=O)[C@@H](CC(=O)NCCCOC)C[C@@H]2C(=O)N1CCN(C(=O)c2ccco2)CC1`, the AC50 was 16.7 µM.

Turning to `C[C@@H]1O[C@@H](O[C@H]2[C@H](O)[C@@H](O)[C@H](Oc3c(-c4ccc(O)cc4)oc4cc(O)cc(O)c4c3=O)O[C@@H]2CO)[C@H](O)[C@H](O)[C@H]1O`, the AC50 was 6.92 µM.

On to `CCOC(=O)C1(CCOc2ccccc2)CCN(Cc2cc(OC)c(O)cc2Cl)CC1`, for which the AC50 was 6.03 µM.

In the case of `COc1ccc2c(CC(=O)OCC(=O)N(C)c3c(N)n(Cc4ccccc4)c(=O)[nH]c3=O)coc2c1`, the AC50 was 5.45 µM.

For the molecule `COc1cc2cc(C(=O)N3CC(COS(C)(=O)=O)c4ccc(O)cc43)[nH]c2c(OC)c1OC` (stereo not given), the AC50 is 18 µM.

On to `C[C@@H]1O[C@@H](OC[C@@H]2O[C@H](Oc3c(-c4ccc(O)cc4)oc4cc(O)cc(O)c4c3=O)[C@@H](O)[C@H](O)[C@H]2O)[C@H](O)[C@H](O)[C@H]1O`, for which the AC50 is 3.51 µM.

For the molecule `Cc1n[nH]c(=O)c2c(NC(=O)CSc3nnnn3-c3ccc(O)cc3)oc(C)c12`, the AC50 is 19.5 µM.

With `C[C@H](CO)N1C[C@H](C)[C@@H](CN(C)S(=O)(=O)c2ccc(F)cc2)Oc2ccc(NC(=O)Cc3cn(C)c4ccccc34)cc2C1=O`, the AC50 was 19.5 µM.

As to `CCN1C(=O)C2C(c3ccccc3F)NC(Cc3ccc(O)cc3)(C(=O)OC)C2C1=O` (stereo not given), the AC50 was 10.2 µM.

On to `Cc1c(O)ccc2c(CC(=O)N[C@@H](Cc3c[nH]c4ccccc34)C(=O)O)cc(=O)oc12`, for which the AC50 is 6.76 µM.

Regarding `Cc1c(O)ccc2c(CN3CCN(C/C=C/c4ccccc4)CC3)cc(=O)oc12`, the AC50 was 19.5 µM.

With `O=C(c1c(O)cc(O)cc1O)C1c2c(cc(O)c3c2O[C@H](c2ccc(O)cc2)[C@@H](O)C3)OC1c1ccc(O)cc1` (stereo not given in full), the AC50 is 19.5 µM.

Turning to `CCOC(=O)c1c(CNCCN(CC)CC)n(C)c2cc(Br)c(OC)cc12`, the concentration at half-maximal activity (AC50) was 0.376 µM.

Consider `O=C(c1ccco1)N1CCN(Cc2cc(=O)oc3cc(O)ccc23)CC1`, for which the AC50 is 19.5 µM.

As for `Cc1ccc(S(=O)(=O)CCC(=O)c2ccc(O)cc2O)cc1`, the AC50 is 15.6 µM.

On to `C[C@H](CO)N1C[C@H](C)[C@@H](CN(C)Cc2ccc(Oc3ccccc3)cc2)Oc2c(NS(C)(=O)=O)cccc2C1=O`, for which the AC50 was 19.5 µM.

Turning to `CCc1cc(OCCCCNCc2ccccc2)ccc1Cl`, the AC50 was 10.6 µM.

For the molecule `O=c1c(O[C@@H]2O[C@H](CO)[C@@H](O)[C@H](O)[C@H]2O)c(-c2ccc(O)cc2)oc2cc(O)cc(O)c12`, the concentration at half-maximal activity (AC50) was 19 µM.

With `Cc1cc(O)cc2c1C1CCC3(C)C(=O)CCC3C1C=C2` (stereo not given), the AC50 is 19.5 µM.

As to `O=C(/C=C/c1ccc(NC(=O)c2ccccc2-c2ccccc2C(=O)O)cc1)c1ccccc1`, the AC50 is 11.4 µM.

Turning to `CCOc1cc(N2CCOCC2)c(OCC)cc1NC(=O)COC(=O)[C@H](Cc1c[nH]c2ccccc12)NC(C)=O`, the AC50 is 19.5 µM.

Turning to `COc1cc(-c2oc3cc(O)cc(O)c3c(=O)c2O[C@@H]2O[C@H](COC3O[C@@H](C)[C@H](O)[C@@H](O)[C@H]3O)[C@@H](O)[C@H](O)[C@H]2O)ccc1O` (stereo not given in full), the AC50 was 7.96 µM.

As to `COc1ccc(C2c3ccc(O)cc3Oc3ncn(CCN4CCOCC4)c(=N)c32)cc1OC` (stereo not given), the AC50 is 15.5 µM.

As for `C[C@@H]1O[C@@H](O[C@H]2[C@H](O)[C@@H](O)[C@H](Oc3c(-c4ccc(O)c(O)c4)oc4cc(O)cc(O)c4c3=O)O[C@@H]2CO)[C@H](O)[C@H](O)[C@H]1O`, the AC50 was 4.28 µM.
